According to patent US20180264094A1, “PERSONALISED IMMUNOGENIC PEPTIDE IDENTIFICATION PLATFORM” (priority 2017, published 2018):
“Also recorded” adds a separate entry of the source. Where no end group is shown, it is not given here.

Key:
T cell responses = settings: percentage of study subjects with positive T cell responses measured in the clinical trials; cited from earlier work
[1] = test system: Vaccine antigen specific CTL responses; settings: published immune response rate (CTL) of the clinical study population; cited from earlier work
[2] = published Disease Control Rate (ORR where no DCR data), RECIST; cited from earlier work
[3] = in vivo; cited from earlier work
[4] = test system: metastatic ovarian adenocarcinoma; experiment: MRI of tumor lesions of patient treated with PIT vaccine (Table 28); type: in vivo, human; settings: before PIT vaccine
Excerpt: • Disease was confined primarily to liver and lymph nodes. The use of MRI limits detection of lung (pulmonary) metastasis • May 2016-January 2017: Olaparib treatment • Dec. 25, 2016 (before PIT vaccine treatment) There was dramatic reduction in tumor burden with confirmation of response obtained at FU2 • January-March 2017—TOPO protocol (topoisomerase) • Apr. […] 21 2017 START PIT • Jul. […] 26, 2017—CBP+Gem+Avastin • Sep.

EGFRvIII = settings: cited from earlier work
[5] = test system: glioblastoma multiforme (GBM); settings: cited from earlier work
[6] = cited from earlier work

Compound: RYRKPDYTLDDGHGLLRFKST (additional peptide 5) [21 mer peptide vaccine, source antigen Abl-2]
- Response rate (Clinical Trials) (T cell responses): 17%

Compound: Ipilimumab
- Clinical Trial Response Rate [1]: 72%
- DCR [2]: 60%

Compound: MMNLMQPKTQQTYTYD (additional peptide 1) [16 mer peptide vaccine, source antigen JUP]
- Response rate (Clinical Trials) (T cell responses): 0%

Compound: Infliximab
- ADA-related adverse event [3]: anaphylaxis

Compound: O=C(c1cc(Cc2n[nH]c(=O)c3ccccc23)ccc1F)N1CCN(C(=O)C2CC2)CC1 [Olaparib]
- Lesion response (% Δ from BL) ([4]; SUM of target lesions, FU1, during Olaparib treatment): −66.3%
- Lesion response (% Δ from BL) ([4]; SUM, FU2, Olaparib treatment): −76.0%
- Lesion response (% Δ from BL) ([4]; TL1, FU1, patient, MRI, during Olaparib treatment): −56.1%
- Lesion response (% Δ from BL) ([4]; TL1, FU2 (Dec. 25, 2016), Olaparib treatment): −44.4%
- Lesion response (% Δ from BL) ([4]; TL2, FU1, during Olaparib treatment): −100.0%
- Lesion response (% Δ from BL) ([4]; TL2, FU2, Olaparib treatment): −100.0%
- Lesion response (% Δ from BL) ([4]; TL3, FU1, during Olaparib treatment): −59.4%
- Lesion response (% Δ from BL) ([4]; TL3, FU2, Olaparib treatment): −62.3%
- Lesion response (% Δ from BL) ([4]; TL4, FU1, during Olaparib treatment): −65.8%
- Lesion response (% Δ from BL) ([4]; TL4, FU2, Olaparib treatment): −100.0%

Compound: FPPKDDHTLKFLYDDNQRPYPP (additional peptide 4) [22 mer peptide vaccine, source antigen TOP2A]
- Response rate (Clinical Trials) (T cell responses): 11%

Compound: LEEKKGNYVVTDHC (also: conjugated to KLH) [Rindopepimut, 13-amino-acid peptide vaccine spanning the EGFRvIII mutation with additional C-terminal cysteine]
- Responders (EGFRvIII; Clinical trial (Phase II), cellular immune response by DTH reaction test, EGFRvIII-expressing GBM patients): 3/18
- Response rate (EGFRvIII; Clinical trial (Phase II), cellular immune response by DTH reaction test): 16.6%
- patients developing cellular immune response assessed by DTH reaction test (EGFRvIII; phase II, peptide conjugated to KLH, intradermal, newly diagnosed EGFRvIII-expressing GBM): 3 out of 18
- HR (overall survival) ([5]; Rindopepimut group versus control group, 95% CI 0.79-1.30): 1.01
- median overall survival ([5]; phase III, Rindopepimut and temozolomide (n=371)): 20.1 months

Compound: Basiliximab
- ADA-related adverse event [3]: anaphylaxis

Compound: Epoetin
- ADA-related adverse event [3]: Antibody-mediated pure red cell aplasia

Compound: ALDQCKTSCALMQQHYDQTSCFSSP (additional peptide 7) [25 mer peptide vaccine, source antigen ITGB8]
- Response rate (Clinical Trials) (T cell responses): 28%

Compound: ImMucin: anti-MUC1 signal peptide vaccine, ref 15; likely the 21 mer MTPGTQSPFFLLLLLTVLTVV
- Clinical Trial Response Rate [1]: 90%
- DCR [2]: 73%

Compound: YLEPGPVTA
- Response rate (Clinical Trials) (T cell responses): 28%

Compound: Abciximab
- ADA-related adverse event [3]: anaphylaxis

Compound: QRPPFSQLHRFLADALNT (additional peptide 6) [18 mer peptide vaccine, source antigen DDR1]
- Response rate (Clinical Trials) (T cell responses): 17%

Compound: Erythropoietin
- ADA-related adverse event [3]: pure red cell aplasia

Compound: Pegloticase
- ADA-related adverse event [3]: anti-dug antibody, treatment failure

Compound: CC[C@@]1(O)C(=O)OCc2c1cc1n(c2=O)Cc2cc3c(CN(C)C)c(O)ccc3nc2-1 [Hycamtin]
- Lesion response (% Δ from BL) ([4]; SUM, FU3, after TOPO protocol): −68.9%
- Lesion response (% Δ from BL) ([4]; TL1, FU3 (Apr. 6, 2017), after TOPO protocol): −44.8%
- Lesion response (% Δ from BL) ([4]; TL2, FU3, after TOPO protocol): −47.1%
- Lesion response (% Δ from BL) ([4]; TL3, FU3, after TOPO protocol): −62.0%
- Lesion response (% Δ from BL) ([4]; TL4, FU3, after TOPO protocol): −100.0%

Compound: OKT3
- ADA-related adverse event [3]: anaphylaxis

Compound: Ustekinumab
- ADA-related adverse event [3]: anti-ustekinumab antibodies, affected

Compound: recombinant factor VIII
- ADA-related adverse event [3]: anaphylaxis

Compound: Adalimumab
- ADA-related adverse event [3]: anti-drug antibodies and treatment failure

Compound: LKKGAADGGKLDGNAKLNRSLK (additional peptide 3) [22 mer peptide vaccine, source antigen BAP31]
- Response rate (Clinical Trials) (T cell responses): 11%

Compound: Thrombopoietin [TPO]
- most immunogenic region by State of Art class II HLA restricted epitope identification ([6]; EpiVax/Genentech, US20040209324 A1): C-terminal end of TPO
- immunotoxic region, experimental proof in published literature ([6]; in vivo): N-terminal end of TPO
- immunogenicity / anti-drug antibodies (ADA) ([6]; patients treated with TPO drug): highly immunogenic protein drug causing toxicity in many patients; also recorded: Most individuals treated with TPO drug made anti-drug antibodies (ADA)
- ADA-related adverse event [3]: thrombocitopenia

Compound: Factor-IX
- ADA-related adverse event [3]: anaphylaxis

Compound: SSKALQRPV (additional peptide 11) [9 mer peptide vaccine, source antigen Bcr-Abl]
- Response rate (Clinical Trials) (T cell responses): 0%

Compound: MTPGTQSPFFLLLLLTVLTVV (additional peptide 10)
- Response rate (Clinical Trials) (T cell responses): 90%

Compound: GRGSTTTNYLLDRDDYRNTSD (additional peptide 2) [21 mer peptide vaccine, source antigen ADA17]
- Response rate (Clinical Trials) (T cell responses): 11%

Compound: Etanercept
- ADA-related adverse event [3]: no apparent effect on safety
